# Key:
# UBE2O C375 (Q9C0C9) = target: T1, UBE2O C375 (Q9C0C9) (Homo sapiens, UniProt Q9C0C9); assay: Competitive isoTOP-ABPP, cell lysates; type: binding
# T1 sequence (Q9C0C9 1-1292): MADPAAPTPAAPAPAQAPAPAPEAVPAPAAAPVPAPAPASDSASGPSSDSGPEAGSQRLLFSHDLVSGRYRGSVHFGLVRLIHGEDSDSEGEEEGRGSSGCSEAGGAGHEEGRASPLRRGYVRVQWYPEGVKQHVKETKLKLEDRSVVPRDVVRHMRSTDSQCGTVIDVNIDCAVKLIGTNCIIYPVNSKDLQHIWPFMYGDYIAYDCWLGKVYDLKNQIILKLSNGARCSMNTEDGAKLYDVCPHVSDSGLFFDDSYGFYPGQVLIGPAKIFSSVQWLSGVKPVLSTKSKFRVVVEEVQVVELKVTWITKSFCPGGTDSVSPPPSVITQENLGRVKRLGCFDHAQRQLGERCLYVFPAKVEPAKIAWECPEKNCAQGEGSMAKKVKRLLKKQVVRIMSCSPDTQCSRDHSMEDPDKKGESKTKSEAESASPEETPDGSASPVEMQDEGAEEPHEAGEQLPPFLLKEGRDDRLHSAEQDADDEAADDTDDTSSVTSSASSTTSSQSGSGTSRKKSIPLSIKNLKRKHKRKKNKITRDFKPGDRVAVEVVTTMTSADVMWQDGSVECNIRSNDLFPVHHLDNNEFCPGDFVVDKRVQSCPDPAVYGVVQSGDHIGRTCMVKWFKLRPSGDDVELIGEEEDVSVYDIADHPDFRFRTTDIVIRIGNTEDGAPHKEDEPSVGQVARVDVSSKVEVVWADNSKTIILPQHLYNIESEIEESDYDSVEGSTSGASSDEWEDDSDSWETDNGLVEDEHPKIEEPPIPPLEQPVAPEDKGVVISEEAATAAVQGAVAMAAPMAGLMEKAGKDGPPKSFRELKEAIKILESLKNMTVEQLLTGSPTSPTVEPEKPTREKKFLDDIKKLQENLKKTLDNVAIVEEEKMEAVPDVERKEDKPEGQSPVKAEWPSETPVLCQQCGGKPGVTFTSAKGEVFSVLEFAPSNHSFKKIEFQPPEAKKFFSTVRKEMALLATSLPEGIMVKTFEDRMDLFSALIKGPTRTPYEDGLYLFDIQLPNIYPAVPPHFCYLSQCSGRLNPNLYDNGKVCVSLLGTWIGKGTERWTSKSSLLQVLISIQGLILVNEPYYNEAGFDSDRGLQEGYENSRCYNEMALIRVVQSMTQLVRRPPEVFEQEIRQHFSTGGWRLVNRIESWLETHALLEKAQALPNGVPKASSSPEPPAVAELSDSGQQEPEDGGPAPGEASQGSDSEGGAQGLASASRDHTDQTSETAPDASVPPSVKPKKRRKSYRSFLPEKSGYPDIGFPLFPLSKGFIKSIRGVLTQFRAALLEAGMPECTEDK
# POU2F2 C346 (P09086) = target: T2, POU2F2 C346 (P09086) (Homo sapiens, UniProt P09086); assay: Competitive isoTOP-ABPP, cell lysates; type: binding; settings: for R value (DMSO/fragment) / isoTOP-ABPP ratio, P09086_C346: 500 μM
# T2 sequence (P09086 1-479): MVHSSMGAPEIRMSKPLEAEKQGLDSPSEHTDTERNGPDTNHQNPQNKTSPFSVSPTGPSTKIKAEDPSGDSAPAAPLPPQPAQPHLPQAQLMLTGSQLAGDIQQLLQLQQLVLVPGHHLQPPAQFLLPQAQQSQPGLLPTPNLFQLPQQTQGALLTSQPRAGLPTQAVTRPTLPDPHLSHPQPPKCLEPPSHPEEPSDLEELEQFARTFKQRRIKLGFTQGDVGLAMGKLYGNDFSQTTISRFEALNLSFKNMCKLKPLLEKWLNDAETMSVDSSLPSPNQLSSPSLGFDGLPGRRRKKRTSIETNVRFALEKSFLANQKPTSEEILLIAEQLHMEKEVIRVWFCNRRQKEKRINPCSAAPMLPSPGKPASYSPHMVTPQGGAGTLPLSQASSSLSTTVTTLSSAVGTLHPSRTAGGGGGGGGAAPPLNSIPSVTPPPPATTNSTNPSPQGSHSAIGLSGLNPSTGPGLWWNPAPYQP
smiles,measurement,setting,value
O=C(CCl)Nc1cc(C(F)(F)F)cc(C(F)(F)F)c1 [compound 3],R value (DMSO/fragment),"UBE2O C375 (Q9C0C9); 500 μM, in vitro, MDA-MB-231",9.8
same,R value (DMSO/fragment),"UBE2O C375 (Q9C0C9); 500 μM, invitro, ramos",4.1
same,R value (DMSO/fragment),"POU2F2 C346 (P09086); in vitro, MDA-MB-231",1.7
same,R value (DMSO/fragment),"POU2F2 C346 (P09086); invitro, ramos",5.5
C=CC(=O)N(c1ccccc1)c1ccc(Br)cc1 [compound 5],"isoTOP-ABPP ratio, P09086_C346","POU2F2 C346 (P09086); invitro, ramos",4.6
O=C(CCl)N1CCN(S(=O)(=O)c2ccccc2F)CC1 [compound 10],"isoTOP-ABPP ratio, Q9C0C9_C375","UBE2O C375 (Q9C0C9); 500 μM, invitro, ramos",0.8
Cn1cc(S(=O)(=O)N2CCOCC2)cc1C(=O)NC(=O)CCl [compound 11],"isoTOP-ABPP ratio, P09086_C346","POU2F2 C346 (P09086); invitro, ramos",1.7
O=C(CCl)NCCc1c[nH]c2ccccc12 [compound 13],"isoTOP-ABPP ratio, P09086_C346","POU2F2 C346 (P09086); invitro, ramos",0.6
C=CC(=O)N(Cc1cccnc1)c1ccc(Oc2ccccc2)c(C(F)(F)F)c1 [compound 15],"isoTOP-ABPP ratio (reactivity profile), P09086_C346",POU2F2 C346 (P09086); 500 μm in-vitro ramos,0.8
O=C(CCl)N1CCC(C(O)(c2ccccc2)c2ccccc2)CC1 [compound 20],"isoTOP-ABPP ratio (reactivity profile), P09086_C346",POU2F2 C346 (P09086); 500 μm in-vitro ramos,2.3
O=C(CCl)NC12CC3CC(CC(C3)C1)C2 [compound 21],"isoTOP-ABPP ratio (reactivity profile), Q9C0C9_C375",UBE2O C375 (Q9C0C9); 500 μm in-vitro ramos,2.4
same,"isoTOP-ABPP ratio (reactivity profile), P09086_C346",POU2F2 C346 (P09086); 500 μm in-vitro ramos_231,0.9
N#C/C(=C\c1cc(C(F)(F)F)cc(C(F)(F)F)c1)C(N)=O [compound 23],"isoTOP-ABPP ratio (reactivity profile), Q9C0C9_C375",UBE2O C375 (Q9C0C9); 500 μm in-vitro ramos,1.4
same,"isoTOP-ABPP ratio (reactivity profile), P09086_C346",POU2F2 C346 (P09086); 500 μm in-vitro ramos,1.1
CC(Br)C(=O)Nc1cc(C(F)(F)F)cc(C(F)(F)F)c1 (stereo not shown) [compound 24],"isoTOP-ABPP ratio (reactivity profile), P09086_C346",POU2F2 C346 (P09086); 500 μm in-vitro ramos,1.1
CC(Cl)C(=O)Nc1cc(C(F)(F)F)cc(C(F)(F)F)c1 (stereo not shown) [compound 25],"isoTOP-ABPP ratio (reactivity profile), P09086_C346",POU2F2 C346 (P09086); 500 μm in-vitro ramos_231,0.7
CC(C)CCOCCNC(=O)CCl [compound 27],"isoTOP-ABPP ratio (reactivity profile), Q9C0C9_C375",UBE2O C375 (Q9C0C9); 500 μm in-vitro ramos_231,0.7
C=CC(=O)N(Cc1cccnc1)c1cc(C(F)(F)F)cc(C(F)(F)F)c1 [compound 31],"isoTOP-ABPP reactivity ratio, P09086_C346","POU2F2 C346 (P09086); 500 μm, in-vitro_ramos",0.6
O=C(CCl)Nc1cccc2ncccc12 [compound 51],"isoTOP-ABPP reactivity profile ratio, Q9C0C9_C375","UBE2O C375 (Q9C0C9); 500 μm, in-vitro_ramos",0.8

# — patent US10670605B2, “Cysteine reactive probes and uses thereof” (The Scripps Research Institute, priority 2015, dated 2020)
